# Results taken from patent publication US20250230172A1 (Vanqua Bio, Inc., priority 2021, published 2025).
# Molecular target: T1, GCase (Homo sapiens, UniProt P04062)
# T1 construct: endogenous in cells; host or cells: HeLa cells
# T1 sequence (P04062 40-536): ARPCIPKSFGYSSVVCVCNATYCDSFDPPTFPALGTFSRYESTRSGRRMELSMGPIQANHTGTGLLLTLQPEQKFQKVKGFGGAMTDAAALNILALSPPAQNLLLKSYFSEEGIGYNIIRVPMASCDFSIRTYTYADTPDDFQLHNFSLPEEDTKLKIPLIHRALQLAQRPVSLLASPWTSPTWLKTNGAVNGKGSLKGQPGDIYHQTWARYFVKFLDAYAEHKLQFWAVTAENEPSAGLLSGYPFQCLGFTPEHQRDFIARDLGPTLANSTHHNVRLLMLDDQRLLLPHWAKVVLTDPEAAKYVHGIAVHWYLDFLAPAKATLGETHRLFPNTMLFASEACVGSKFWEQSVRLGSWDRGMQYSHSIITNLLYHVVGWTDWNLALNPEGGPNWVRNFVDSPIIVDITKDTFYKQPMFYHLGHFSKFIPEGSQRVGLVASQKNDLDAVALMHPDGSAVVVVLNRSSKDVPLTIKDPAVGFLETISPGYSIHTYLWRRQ
# Assay: live cell PFB assay in HELA cells for activation of GCase
# Format: cell-based
# Procedure: Exemplary compounds were evaluated for activation of GCase in a live cell PFB assay in HELA cells (essentially as described in Ysselstein et al., “LRRK2 kinase activity regulates lysosomal glucocerebrosidase in neurons derived from Parkinson's disease patients” Nature Communications (2019) 10:5570). […] EC50 ranges: A: <10 μM; B: >10-50 μM; C: >50-100 μM; D: >100 μM.
row,EC50,SMILES
1,10 to 50 µM,"FC(F)Cn1ncc2ncc(N[C@H]3C[C@@H]4CN(c5ncc(C(F)(F)F)cn5)C[C@@H]4C3)nc21 [Compound 86, 1-(2,2-difluoroethyl)-N-((3aR,5s,6aS)-2-(5-(trifluoromethyl)pyrimidin-2-yl)octahydrocyclopenta[c]pyrrol-5-yl)-1H-pyrazolo[3,4-b]pyrazin-6-amine]"
2,< 10 µM,"FC(F)Cn1ncc2ncc(N[C@H]3C[C@@H]4CN(c5ccnc(C(F)(F)F)n5)C[C@@H]4C3)nc21 [Compound 87, 1-(2,2-difluoroethyl)-N-((3aR,5s,6aS)-2-(2-(trifluoromethyl)pyrimidin-4-yl)octahydrocyclopenta[c]pyrrol-5-yl)-1H-pyrazolo[3,4-b]pyrazin-6-amine]"
3,< 10 µM,"FC(F)Cn1ncc2ncc(N[C@H]3C[C@@H]4CN(c5cnc(C(F)(F)F)nc5)C[C@@H]4C3)nc21 [Compound 88, 1-(2,2-difluoroethyl)-N-((3aR,5s,6aS)-2-(2-(trifluoromethyl)pyrimidin-5-yl)octahydrocyclopenta[c]pyrrol-5-yl)-1H-pyrazolo[3,4-b]pyrazin-6-amine]"
4,< 10 µM,"FC(F)Cn1ncc2ncc(N[C@H]3C[C@@H]4CN(c5cncnc5C(F)(F)F)C[C@@H]4C3)nc21 [Compound 89, 1-(2,2-difluoroethyl)-N-((3aR,5s,6aS)-2-(4-(trifluoromethyl)pyrimidin-5-yl)octahydrocyclopenta[c]pyrrol-5-yl)-1H-pyrazolo[3,4-b]pyrazin-6-amine]"
5,< 10 µM,"FC(F)Cn1ncc2ncc(N[C@H]3C[C@@H]4CN(c5cc(C(F)(F)F)ncn5)C[C@@H]4C3)nc21 [Compound 90, 1-(2,2-difluoroethyl)-N-((3aR,5s,6aS)-2-(6-(trifluoromethyl)pyrimidin-4-yl)octahydrocyclopenta[c]pyrrol-5-yl)-1H-pyrazolo[3,4-b]pyrazin-6-amine]"
6,< 10 µM,"FC(F)Cn1ncc2ncc(N[C@H]3C[C@@H]4CN(c5ncncc5C(F)(F)F)C[C@@H]4C3)nc21 [Compound 91, 1-(2,2-difluoroethyl)-N-((3aR,5s,6aS)-2-(5-(trifluoromethyl)pyrimidin-4-yl)octahydrocyclopenta[c]pyrrol-5-yl)-1H-pyrazolo[3,4-b]pyrazin-6-amine]"
